Reference: patent publication US20050222183A1, “Combination of zd6474, an inhibitor of the vascular endothelial growth factor receptor, with radiotherapy in the treatment of cancer” (priority 2002, published 2005)

Experiments:
[1] = test system: Calu-6 (lung carcinoma) tumour xenografts; experiment: Calu-6 xenograft model: ZD6474 25 mg/kg given after ionising radiation; type: in vivo, female Alderley Park nude mice
Description: Calu-6 (lung carcinoma) cells were obtained from the American Type Culture Collection (Manassas, Va.). All cell culture reagents, where not specified, were obtained from Life Technologies, Paisley, UK. Cells were maintained as exponentially growing monolayers in Eagle's Minimal Essential Medium (EMEM) containing 10% FCS (Labtech International, Ringmer, UK), 2 mM L-glutamine (Sigma Chemical Co., Poole, UK), 1% sodium pyruvate (100 mM) and 1% non-essential amino acids. Cells were periodically screened for the presence of microplasma in culture, and analysed for 15 types of virus in a mouse antibody production test (AstraZeneca Central Toxicology Laboratories, Alderley Park, UK) prior to routine use in vivo.
Calu-6 cells (2×10^7 cells/ml) were prepared for implantation in a mixture of 50% (v/v) matrigel (Fred Baker, Liverpool, UK) in serum free Roswell Park Memorial Institute (RPMI)-1640 media. Tumour xenografts were established by subcutaneously injecting 0.1 ml of the cell suspension (i.e. 2×10^6 cells/mouse) into female Alderley Park nude mice (nu/nu genotype; 8-10 weeks of age). Once a palpable tumour was evident, tumour volume was assessed daily by calliper measurement and calculated using the formula, length×width×height.
Mice were randomised into groups of eight, prior to treatment, when tumours measured 225-315 mm^3. Ionising radiation, where given, was administered at a dose rate of 2 Gy per min to unanaesthetised mice restrained in polyvinyl jigs with lead shielding and a cut away section to allow local irradiation of the tumour by the unilateral beam (Pantac X-ray set). Jigs were turned through 180° halfway through the radiation exposure time to provide a uniform dosing. Radiation was administered either as a single dose (5 Gy on day 1) or by multiple daily dosing (2 Gy/day on days 1-3). Thirty minutes after the last dose of radiation, ZD6474 (25 mg/kg), or vehicle, was administered by oral gavage (0.1 ml/10 g body weight) and then once-daily thereafter for a further 13 days (i.e. 14 days of oral treatment in total). ZD6474 was prepared as a suspension in 1% polysorbate 80 (i.e. a 1% (v/v) solution of polyoxyethylene (20) sorbitan mono-oleate in deionised water). Mice were humanely killed when the relative volume of their tumour reached four times that at the initiation of therapy (RTV4). A two-tailed two-sample t-test was used to evaluate the significance of the results obtained.

Calu-6 tumours = experiment: Calu-6 xenograft model: schedules, ZD6474 50 mg/kg concurrent or sequential with radiotherapy; type: in vivo, mice; details: for Growth delay (days ± SE): RTV4 relative to control
Description: In an analogous experiment using the Calu-6 xenograft model described hereinbefore different schedules were investigated.
Mice bearing Calu-6 tumours (220-300 mm^3) were randomized into groups of eight, to receive either ZD6474 (50 mg/kg p.o. once daily) or vehicle only (1% polysorbate in deionized water) for the duration of the experiment. ZD6474, or vehicle, was also administered with or without radiotherapy (3×2 Gy at 24-hour intervals during the first 3 days of treatment). Where mice received 50 mg/kg ZD6474 plus radiation therapy, two treatment schedules were examined. • a) Concurrent combination treatment: ZD6474 dosing given 2 hours prior to the first dose of radiation; and • b) Sequential combination treatment: ZD6474 dosing given 30 minutes after the last dose of radiotherapy. […]
Treatment efficacy was assessed by measuring the time for tumours to quadruple in volume (RTV4) from their pretreatment size and calculating the relative growth delay (i.e. comparing RTV4 values from individual treated groups, with that of the control).

For `COc1cc2c(Nc3ccc(Br)cc3F)ncnc2cc1OCC1CCN(C)CC1` [ZD6474, 4-(4-bromo-2-fluoroanilino)-6-methoxy-7-(1-methylpiperidin-4-ylmethoxy)quinazoline], the “RTV4” value ([1]; 3 × 2Gy (days 1-3), then ZD6474 25 mg/kg/day oral for 14 days post-irradiation) was 28.1 days, the “Therapeutic effect of radiation plus ZD6474 versus either therapy alone” value ([1]; 5 Gy or 3×2 Gy plus ZD6474 25 mg/kg) was “better therapeutic effect than either therapy alone” and the “RTV4” value ([1]; 5 Gy single dose on day 1, then ZD6474 25 mg/kg/day oral for 14 days post-irradiation) was 25.5 days. The “RTV4” value ([1]; ZD6474 25 mg/kg/day oral for 14 days, no radiation, time for tumour to reach four times its volume at initiation of therapy) was 12.1 days, the “Growth delay of combination versus either single treatment” value (Calu-6 tumours; 50 mg/kg ZD6474 combined with 3×2 Gy radiation) was “significantly greater than that of either single treatment alone” and the “RTV4 (days ± SE)” value (Calu-6 tumours; 50 mg/kg ZD6474 p.o. once daily, no radiation, n = 8) was 17 ± 1.0 days. The “Growth delay (days ± SE)” value (Calu-6 tumours; 50 mg/kg ZD6474 p.o. once daily, no radiation) was 9 ± 1.1 days, the “Growth delay (days ± SE)” value (Calu-6 tumours; 3 × 2 Gy plus 50 mg/kg ZD6474 (concurrent)) was 22 ± 1.1 days and the “RTV4 (days ± SE)” value (Calu-6 tumours; 3 × 2 Gy plus 50 mg/kg ZD6474 (concurrent: dosing begun 2 hours prior to first dose of radiation)) was 30 ± 1.0 days. For the same compound, the “Growth delay (days ± SE)” value (Calu-6 tumours; 3 × 2 Gy plus 50 mg/kg ZD6474 (sequential)) was 36 ± 1.0 days, the “RTV4 (days ± SE)” value (Calu-6 tumours; 3 × 2 Gy plus 50 mg/kg ZD6474 (sequential: dosing begun 30 minutes after last dose of radiotherapy)) was 44 ± 0.9 days and the “Tumour growth inhibition, sequential versus concurrent combination” value (Calu-6 tumours; 3×2 Gy radiation and 50 mg/kg ZD6474) was “inhibited tumour growth significantly more than when the same agents were combined concurrently”. For the same compound, the “Antitumour effect of sequential combination versus sum of individual therapies” value (Calu-6 tumours; sequential 3×2 Gy radiation and 50 mg/kg ZD6474) was “greater than the sum of the growth delays induced by the individual therapies”.
